One may read the MIC80 as the lowest concentration that inhibits either 80% of growth or 80% of the strains tested, depending on the study.

Data on 22 molecules can be found in US20180072675A1, “ANTIMICROBIAL PYRIDINOHYDRAZIDE AND HYDRAZOMETHYLPYRIDINE-BASED AGENTS” (Board of Supervisors of Louisiana State University and …, priority 2015, published 2018).

Converted amounts (≈) assume the structure as drawn.

In assay [1] the test system is C. albicans clinical isolate 1 (TW1). Nature of the assay: MIC80 fungal growth inhibition, clinical isolate TW1. Conditions: Azole-susceptible, >80% growth inhibition, visual scoring; for MIC80: Candida albicans, read-out: MIC80 TW1. The assay is classed as cell-based, Candida albicans. As for the experimental part:
(§1) The antifungal activity of the pyridinohydrazide and hydrazomethylpyridine derivatives described in the s were evaluated in vitro using Candida albicans (ATCC Accession No. 10231) and Candida glabrata (ATCC Accession No. 48435). In addition, the compounds were evaluated for activity against two previously-described clinical isolates of C. albicans known to have developed azole-resistance. These isolates were obtained over a two year period from a single AIDS patient and the development of the azole-resistance mechanisms have been extensively characterized (White T C. Antimicrob. Agents Chemother. (1997) 41: 1482-1487). MIC assays were performed on the clinical isolates 1 and 17 (annotated TW1 and TW17, respectively), where isolate 1 was used as an azole-susceptible control and isolate 17 was considered azole-resistant. All assays were done in accordance with NCCLS reference documents (Clinical Laboratory and Standards Institute. Reference method for Broth Dilution Antifungal Susceptibility Testing of Yeasts: Approved Standard. M27-A3 2010; 28). The results of these screenings are summarized in Tables 1-9 (Examples 20-27) as the minimum concentrations that inhibited more than 80% of fungal growth (MIC80) as compared to positive controls containing 1% DMSO. Assays were performed in HEPES-buffered RPMI-1640 media. All MIC screens used a visual scoring method as opposed to spectroscopic analysis, due to the altered absorbance spectra of many of the compounds.

Assay [2] has as its system C. albicans clinical isolate 17 (TW17). Nature of the assay: MIC80 fungal growth inhibition, clinical isolate TW17. Particulars: Azole-resistant, >80% growth inhibition, visual scoring; for MIC80: Candida albicans, read-out: MIC80 TW17. The assay is classed as cell-based, Candida albicans. As for the experimental part:
as §1

Assay [3] has as its system Candida albicans (ATCC Accession No. 10231). Nature of the assay: MIC80 fungal growth inhibition, C. albicans ATCC 10231. It is filed as cell-based. Particulars: Azole-susceptible, >80% growth inhibition, visual scoring; for MIC80: Candida albicans, ATCC10231, read-out: MIC80 C. albicans ATCC No. 10231. As for the experimental part: as §1
For assay [4], the system named is Candida glabrata (ATCC Accession No. 48435). Nature of the assay: MIC80 fungal growth inhibition, C. glabrata ATCC 48435. Particulars: for MIC80: Nakaseomyces glabratus, ATCC48435, read-out: MIC80 C. glabrata ATCC No. 48435; for MIC80 / MIC80 C. glabrata ATCC No. 48435: Azole-resistant, >80% growth inhibition, visual scoring. The assay is classed as cell-based. On the procedure: as §1

With `COc1ccc(O)c(/C=N/NC(=O)c2ccncc2)c1` [AR15], the MIC80 in assay [1] stood at 16 µg/mL (≈ 59 µM); in assay [2] it was 16 µg/mL (≈ 59 µM); in assay [3], 4 µg/mL (≈ 14.7 µM); in assay [4], 4 µg/mL (≈ 14.7 µM).
Regarding `O=C(N/N=C/c1ccccc1O)c1cccnc1` [AR7], the MIC80 in assay [1] is 4 µg/mL (≈ 16.6 µM); in assay [2] it was 31 µg/mL (≈ 128 µM); in assay [3], 4 µg/mL (≈ 16.6 µM); in assay [4] it was 16 µg/mL (≈ 66.3 µM).
Consider `O=C(NN=Cc1ccccn1)c1ccc[n+]([O-])c1` [AR38], for which the “MIC80 TW1” value in assay [1] was 62 µg/mL (≈ 256 µM). In assay [2], the “MIC80 TW17” value came out at 125 µg/mL (≈ 516 µM). Moreover, the “MIC80 C. albicans ATCC No. 10231” value in assay [3] stood at 125 µg/mL (≈ 516 µM). Further, the “MIC80 C. glabrata ATCC No. 48435” value in assay [4] stood at 125 µg/mL (≈ 516 µM).
As to `Cc1ccc(O)c(C=NNC(=O)c2ccc[n+]([O-])c2)c1` [AR24], in assay [1], the “MIC80 TW1” value worked out at 16 µg/mL (≈ 59 µM). For the same molecule, in assay [2], the “MIC80 TW17” value came to 16 µg/mL (≈ 59 µM). For the same molecule, in assay [3], the “MIC80 C. albicans ATCC No. 10231” value worked out at 16 µg/mL (≈ 59 µM). The “MIC80 C. glabrata ATCC No. 48435” value in assay [4] is 31 µg/mL (≈ 114 µM).
With `COc1ccc(O)c(/C=N/NC(=O)c2ccc[n+]([O-])c2)c1` [AR25], the MIC80 in assay [1] was determined as 62 µg/mL (≈ 216 µM); in assay [2] it was 31 µg/mL (≈ 108 µM); in assay [3], 16 µg/mL (≈ 55.7 µM); in assay [4] it was 4 µg/mL (≈ 13.9 µM).
As for `O=C(N/N=C/c1ccccc1O)c1ccccn1` [AR1, (E)-N′-(2-hydroxybenzylidene)picolinohydrazide], the MIC80 in assay [1] is 62 µg/mL (≈ 257 µM); in assay [3], 16 µg/mL (≈ 66.3 µM); in assay [4], 8 µg/mL (≈ 33.2 µM).
For the molecule `O=C(N/N=C/c1cc(Cl)ccc1O)c1cccnc1` [AR10], the MIC80 in assay [1] was determined as 8 µg/mL (≈ 29 µM); in assay [2], 62 µg/mL (≈ 225 µM); in assay [3], 4 µg/mL (≈ 14.5 µM); in assay [4], 8 µg/mL (≈ 29 µM).
For `O=C(NN=Cc1ccccn1)c1ccccc1` [AR31], the “MIC80 TW1” value in assay [1] is 31 µg/mL (≈ 138 µM). The “MIC80 TW17” value in assay [2] worked out at 62 µg/mL (≈ 275 µM). For the same molecule, the “MIC80 C. albicans ATCC No. 10231” value in assay [3] amounted to 62 µg/mL (≈ 275 µM). In addition, in assay [4], the “MIC80 C. glabrata ATCC No. 48435” value came out at 62 µg/mL (≈ 275 µM).
In the case of `O=C(NN=Cc1ccccn1)c1cccnc1` [AR35], in assay [1], the “MIC80 TW1” value was 62 µg/mL (≈ 274 µM). The “MIC80 TW17” value in assay [2] is 62 µg/mL (≈ 274 µM). Moreover, the “MIC80 C. albicans ATCC No. 10231” value in assay [3] was found to be 125 µg/mL (≈ 553 µM). Besides, the “MIC80 C. glabrata ATCC No. 48435” value in assay [4] turned out to be 125 µg/mL (≈ 553 µM).
Take `O=C(NN=Cc1ccccc1O)c1ccc[n+]([O-])c1` [AR23]: the “MIC80 TW1” value in assay [1] was found to be 31 µg/mL (≈ 121 µM). The “MIC80 TW17” value in assay [2] amounted to 31 µg/mL (≈ 121 µM). The “MIC80 C. albicans ATCC No. 10231” value in assay [3] came to 31 µg/mL (≈ 121 µM). Further, the “MIC80 C. glabrata ATCC No. 48435” value in assay [4] worked out at 16 µg/mL (≈ 62.2 µM).
Take `COc1ccc(O)c(/C=N/NC(=O)c2ccccn2)c1` [AR3, (E)-N′-(2-Hydroxy-5-methoxybenzylidene)picolinohydrazide]: the MIC80 was found to be 8 µg/mL (≈ 29.5 µM) in assay [1], 31 µg/mL (≈ 114 µM) in assay [2], 4 µg/mL (≈ 14.7 µM) in assay [3] and 1 µg/mL (≈ 3.69 µM) in assay [4].
On to `O=C(NN=Cc1cc(Br)ccc1O)c1cccnc1O` [AR22], for which, in assay [4], the “potency against Candida glabrata (in words)” value is on record as “one of the most potent compounds” and the “MIC80 C. glabrata ATCC No. 48435” value is 0.5 µg/mL (≈ 1.49 µM).
Regarding `O=C(NN=Cc1ccccn1)c1ccccc1O` [AR32], the “MIC80 TW1” value in assay [1] was determined as 31 µg/mL (≈ 128 µM). Further, the “MIC80 TW17” value in assay [2] is 62 µg/mL (≈ 257 µM). The “MIC80 C. albicans ATCC No. 10231” value in assay [3] was found to be 31 µg/mL (≈ 128 µM). The “MIC80 C. glabrata ATCC No. 48435” value in assay [4] is 4 µg/mL (≈ 16.6 µM).
`Cc1ccc(O)c(C=NNC(=O)c2ccncc2)c1` [AR14]: the “MIC80 TW1” value in assay [1] is 16 µg/mL (≈ 62.7 µM). Further, in assay [2], the “MIC80 TW17” value worked out at 31 µg/mL (≈ 121 µM). The “MIC80 C. albicans ATCC No. 10231” value in assay [3] is 4 µg/mL (≈ 15.7 µM). Further, the “MIC80 C. glabrata ATCC No. 48435” value in assay [4] came out at 31 µg/mL (≈ 121 µM).
For `COc1ccc(O)c(/C=N/NC(=O)c2cccnc2)c1` [AR9], in assay [1], the “MIC80 TW1” value was determined as 16 µg/mL (≈ 59 µM). Moreover, in assay [2], the “MIC80 TW17” value stood at 4 µg/mL (≈ 14.7 µM). The “MIC80 C. albicans ATCC No. 10231” value in assay [3] was 62 µg/mL (≈ 229 µM). Moreover, in assay [4], the “MIC80 C. glabrata ATCC No. 48435” value worked out at 4 µg/mL (≈ 14.7 µM).
Regarding `O=C(NN=Cc1ccccn1)c1ccncc1` [AR36], in assay [1], the “MIC80 TW1” value is 62 µg/mL (≈ 274 µM). Besides, the “MIC80 TW17” value in assay [2] amounted to 125 µg/mL (≈ 553 µM). In addition, the “MIC80 C. albicans ATCC No. 10231” value in assay [3] came to 125 µg/mL (≈ 553 µM). Besides, the “MIC80 C. glabrata ATCC No. 48435” value in assay [4] turned out to be 125 µg/mL (≈ 553 µM).
Regarding `O=C(NN=Cc1cc(Br)ccc1O)c1cccnc1` [AR11], the “MIC80 TW1” value in assay [1] came out at 8 µg/mL (≈ 25 µM). Also, the “MIC80 TW17” value in assay [2] amounted to 16 µg/mL (≈ 50 µM). In assay [3], the “MIC80 C. albicans ATCC No. 10231” value is 4 µg/mL (≈ 12.5 µM). The “MIC80 C. glabrata ATCC No. 48435” value in assay [4] stood at 16 µg/mL (≈ 50 µM).
Take `O=C(NN=Cc1cc(Cl)ccc1O)c1ccncc1` [AR16]: the “MIC80 TW1” value in assay [1] was determined as 16 µg/mL (≈ 58 µM). The “MIC80 TW17” value in assay [2] turned out to be 125 µg/mL (≈ 453 µM). In addition, in assay [3], the “MIC80 C. albicans ATCC No. 10231” value was determined as 31 µg/mL (≈ 112 µM). Moreover, in assay [4], the “MIC80 C. glabrata ATCC No. 48435” value amounted to 16 µg/mL (≈ 58 µM).
Regarding `O=C(NN=Cc1cc(Br)ccc1O)c1ccncc1` [AR17], the “MIC80 TW1” value in assay [1] amounted to 16 µg/mL (≈ 50 µM). Moreover, the “MIC80 TW17” value in assay [2] was determined as 125 µg/mL (≈ 390 µM). In addition, the “MIC80 C. albicans ATCC No. 10231” value in assay [3] was 16 µg/mL (≈ 50 µM). Moreover, the “MIC80 C. glabrata ATCC No. 48435” value in assay [4] is 64 µg/mL (≈ 200 µM).
`O=C(N/N=C/c1cc(Cl)ccc1O)c1ccc[n+]([O-])c1` [AR26]: the MIC80 was found to be 31 µg/mL (≈ 106 µM) in assay [1], 31 µg/mL (≈ 106 µM) in assay [2], 16 µg/mL (≈ 54.9 µM) in assay [3] and 4 µg/mL (≈ 13.7 µM) in assay [4].
As to `Cc1ccc(O)c(/C=N/NC(=O)c2cccnc2O)c1` [AR20], the MIC80 in assay [4] turned out to be 2 µg/mL (≈ 7.37 µM).
On to `O=C(NN=Cc1ccccc1O)c1ccncc1` [AR13], for which, in assay [1], the “MIC80 TW1” value was 4 µg/mL (≈ 16.6 µM). In assay [2], the “MIC80 TW17” value was determined as 31 µg/mL (≈ 128 µM). Also, the “MIC80 C. albicans ATCC No. 10231” value in assay [3] came out at 8 µg/mL (≈ 33.2 µM). The “MIC80 C. glabrata ATCC No. 48435” value in assay [4] amounted to 16 µg/mL (≈ 66.3 µM).
